# From paper PMC2918917 (New journal of chemistry = Nouveau journal de chimie, 2010)
# Where two headings read alike, the source gives them in different places.
# Experiments:
# [1] = test system: cultured mouse mammary cells; settings: cited from earlier work
# [2] = test system: microRNA-mediated translational repression; settings: cited from earlier work; for enhancement of microRNA-mediated translational repression: Drosophila melanogaster embryos extract
# [3] = test system: rabbit reticulocyte lysate (RRL) system; settings: cited from earlier work
# human DcpS = target: T1, human DcpS (Homo sapiens, UniProt Q96C86); experiment: hDcpS assay: enzymatic hydrolysis of cap analogs monitored by RP HPLC; settings: positive control; cleavage to m^7GMP and GDP; amount of DcpS adjusted
# T1 sequence (Q96C86 1-337): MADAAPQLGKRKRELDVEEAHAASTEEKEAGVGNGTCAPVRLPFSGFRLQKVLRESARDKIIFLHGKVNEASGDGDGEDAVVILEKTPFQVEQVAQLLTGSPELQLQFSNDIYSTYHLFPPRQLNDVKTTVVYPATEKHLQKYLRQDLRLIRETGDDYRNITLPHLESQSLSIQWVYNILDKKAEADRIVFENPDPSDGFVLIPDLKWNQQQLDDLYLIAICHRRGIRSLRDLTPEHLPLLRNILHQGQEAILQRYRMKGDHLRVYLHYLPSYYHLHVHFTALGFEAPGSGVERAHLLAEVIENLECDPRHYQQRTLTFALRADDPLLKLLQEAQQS
# hDcp2 = hDcp2 (Homo sapiens, UniProt Q8IU60); experiment: In vitro decapping of capped mRNA by hDcp2; format: biochemical; settings: mRNA capped with D1 plus D2 mixture; preliminary results, unpublished work [21]
# cultured cells = settings: cited from earlier work
molecule,measurement,setting,value
"CO[C@@H]1[C@H](O)[C@@H](COP(=O)(O)OP(O)(=S)OP(=O)(O)OC[C@H]2O[C@@H](n3cnc4c(=O)[nH]c(N)nc43)[C@H](O)[C@@H]2O)O[C@H]1n1c[n+](C)c2c(=O)[nH]c(N)nc21 (stereo partly drawn) [m2^7,2’-OGppSpG (D2)]","translation efficiency relative to m2^7,2’-OGpppG-capped mRNA",[1],2.4
"COC1C(O)C(COP(=O)(O)OP(=O)(O)OP(O)(=S)OCC2OC(n3cnc4c(=O)[nH]c(N)nc43)C(O)C2O)OC1n1c[n+](C)c2c(=O)[nH]c(N)nc21 (stereo not drawn) [m2^7,2’-OGpppSG (D2)]",enhancement of microRNA-mediated translational repression,[2],2 fold
same,enhancement of microRNA-mediated translational repression,"[2]; listed as m2^7,2'-OGpppSG (D2)",~ 2 fold
same,effect on general cap-dependent translation,[2],no change
same,effect on general cap-dependent translation,"[2]; listed as m2^7,2'-OGpppSG (D2)",neutral
"COC1C(COP(=O)([O-])OP(=O)(O)OP(=O)(O)OP(=O)(O)OP(=O)(O)OCC2OC(n3cnc4c(=O)[nH]c(N)nc43)C(O)C2O)OC(n2c[n+](C)c3c(=O)[nH]c(N)nc32)C1O (stereo not drawn) [m2^7,3'-OGp5G]",translation efficiency of mRNA capped with pentaphosphate analog,[3],not effective in promoting translation
C[n+]1cn(C2OC(COP(=O)([O-])OP(=O)(O)OP(=O)(O)OP(=O)(O)OP(=O)(O)OP(=O)(O)OCC3OC(n4cnc5c(=O)[nH]c(N)nc54)C(O)C3O)C(O)C2O)c2nc(N)[nH]c(=O)c21 (stereo not drawn) [m^7Gp6G],enhancement of microRNA-mediated translational repression,[2],~ 2 fold
same,effect on general cap-dependent translation,[2],neutral
Cn1c[n+]([C@@H]2O[C@H](COP(=O)(O)OP(=O)([O-])OP(=O)(O)OC[C@H]3O[C@@H](n4cnc5c(=O)[nH]c(N)nc54)[C@H](O)[C@@H]3O)[C@@H](O)[C@H]2O)c2nc(N)[nH]c(=O)c21 [m^7GpppG],time to complete cleavage by DcpS,human DcpS,less than 15 min
"P1-(7,2'-O-dimethylguanosin-5'-y l ) P4-guanosin-5'-yl (3-thiotetraphosphate) [compound 2]",susceptibility of capped mRNA to in vitro decapping by hDcp2,hDcp2,resistant
"m2^7,3'-OGppCH2pG",half-life of capped mRNA transfected into cultured cells,cultured cells,prolonged half-life
same,translation of capped mRNA versus regular ARCA,cultured cells,translated even less efficiently
